Read-outs that look alike come from different tables or passages of the source. One block for each compound: values may come before it.
Key:
[1] = tested on: SKBr3 (estrogen receptor negative, Her2 over-expressing breast cancer cells); assay: Anti-proliferation assay (MTS/PMS, 72 h), SKBr3; format: cell-based
Experimental: (§1) Cells were maintained in a 1:1 mixture of Advanced DMEM/F12 (Gibco) supplemented with non-essential amino acids, L-glutamine (2 mM), streptomycin (500 μg/mL), penicillin (100 units/mL), and 10% FBS. Cells were grown to confluence in a humidified atmosphere (37° C., 5% CO2), seeded (2000/well, 100 μL) in 96-well plates, and allowed to attach overnight. Compound at varying concentrations in DMSO (1% DMSO final concentration) was added, and cells were returned to the incubator for 72 h. At 72 h, the number of viable cells was determined using an MTS/PMS cell proliferation kit (Promega) per the manufacturer's instructions. Cells incubated in 1% DMSO were used at 100% proliferation, and values were adjusted accordingly. IC50 values were calculated from separate experiments performed in triplicate using GraphPad Prism.
(§2) The anti-proliferative activity of these compounds is evaluated against two breast cancer cell lines, SKBr3 (estrogen receptor negative, Her2 over-expressing breast cancer cells) and MCF-7 (estrogen receptor positive breast cancer cells).

[2] = tested on: MCF-7 (estrogen receptor positive breast cancer cells); assay: Anti-proliferation assay (MTS/PMS, 72 h), MCF-7; format: cell-based
Experimental: as §1, §2

[3] = Table 3, cycloamine analogues, read-out: SKBr3
[4] = Table 3, cycloamine analogues, read-out: MCF-7
[5] = Homo sapiens, SK-BR-3, Table 5, alkylether derivatives with cyclic N-substitutions, read-out: SKBr3
[6] = Homo sapiens, MCF7, Table 5, alkylether derivatives with cyclic N-substitutions, read-out: MCF-7
[7] = Homo sapiens, SK-BR-3, Table 4, alkylamino analogues, read-out: SKBr3
[8] = Homo sapiens, MCF7, Table 4, alkylamino analogues, read-out: MCF-7
[9] = Homo sapiens, SK-BR-3, Table 8, biphenyl ureas, Breast Cancer, read-out: IC50 SKBr3
[10] = Homo sapiens, MCF7, Table 8, biphenyl ureas, Breast Cancer, read-out: IC50 MCF-3
[11] = Table 10, modified initial novobiocin analogs, read-out: SkBr3, IC50
[12] = Table 9, non-aryl ureas, Breast Cancer, read-out: IC50 SKBr3
[13] = Table 9, non-aryl ureas, Breast Cancer, read-out: IC50 MCF-3
[14] = Homo sapiens, SK-BR-3, Table 1, modified benzamide coumarin derivatives, read-out: SKBr3
[15] = Homo sapiens, MCF7, Table 1, modified benzamide coumarin derivatives, read-out: MCF-7
[16] = Homo sapiens, SK-BR-3, Table 2, modified benzamide and biphenylamide derivatives (in μM), read-out: SKBr3
[17] = Homo sapiens, MCF7, Table 2, modified benzamide and biphenylamide derivatives (in μM), read-out: MCF-7

Compound: CC(C)=CCc1cc(C(=O)Nc2cc3ccc(OCC4CCN(C)C4)c(C)c3oc2=O)ccc1O (centres unmarked)
IC50 [1, 3]: 0.92 ± 0.56 µM
IC50 [2, 4]: 1.55 ± 0.04 µM

Compound: CC(=O)Oc1ccc(C(=O)Nc2cc3ccc(OCC4CCCN(C)C4)c(C)c3oc2=O)cc1CC=C(C)C (centres unmarked)
IC50 [1, 3]: 0.74 ± 0.01 µM
IC50 [2, 4]: 1.65 ± 0.11 µM

Compound: CC(C)=CCc1cc(C(=O)Nc2cc3ccc(OCCCN4CCCC4)c(C)c3oc2=O)ccc1O [drawing 147]
IC50 [1, 3]: 0.72 ± 0.01 µM
IC50 [2, 4]: 0.99 ± 0.04 µM

Compound: CC(C)=CCc1cc(C(=O)Nc2cc3ccc(OCCCN4CCN(C)CC4)c(C)c3oc2=O)ccc1O [drawing 143]
IC50 [1, 3]: 1.01 ± 0.03 µM
IC50 [2, 4]: 1.2 ± 0.12 µM

Compound: COc1cccc(-c2cccc(NC(=O)Nc3cc4ccc(OC5CCN(C)CC5)c(C)c4oc3=O)c2)c1 [H, OMe, 1-(3′-methoxy-[1,1′-biphenyl]-3-yl)-3-(8-methyl-7-((1-methylpiperidin-4-yl)oxy)-2-oxo-2H-chromen-3-yl)urea]
IC50 [1, 9]: 0.44 µM
IC50 [2, 10]: 0.37 µM

Compound: Cc1c(OCCC2CCCCN2)ccc2cc(NC(=O)Nc3ccc(Cl)cc3)c(=O)oc12 (centres unmarked) [Compound 11]
IC50 [1, 11]: 0.21 ± 0.06 µM

Compound: COc1ccc(CNC(=O)Nc2cc3ccc(OC4CCN(C)CC4)c(C)c3oc2=O)cc1
IC50 [1, 12]: 0.68 ± 0.06 µM
IC50 [2, 13]: 0.65 ± 0.11 µM

Compound: C#CCOc1ccc(C(=O)Nc2cc3ccc(OC4CCN(C)CC4)c(C)c3oc2=O)cc1CC=C(C)C [Compound 18, N-(8-methyl-7-(1-methylpiperidin-4-yloxy)-2-oxo-2H-chromen-3-yl)-3-(3-methylbut-2-enyl)-4-(prop-2-ynyloxy)benzamide]
IC50 [1, 14]: 1.4 ± 0.11 µM
IC50 [2, 15]: 1.12 ± 0.16 µM

Compound: Cc1c(OC2CCN(C)CC2)ccc2cc(NC(=O)NCc3ccc(Cl)cc3)c(=O)oc12
IC50 [1, 12]: 1.04 ± 0.07 µM
IC50 [2, 13]: 1.05 ± 0.07 µM

Compound: Cc1c(OC2CCN(C)CC2)ccc2cc(NC(=O)Nc3ccc(O)cc3)c(=O)oc12 [p-OH, 1-(4-hydroxyphenyl)-3-(8-methyl-7-((1-methylpiperidin-4-yl)oxy)-2-oxo-2H-chromen-3-yl)urea]
IC50 ([1]; Homo sapiens, SK-BR-3, Table 6, substituted phenyl ureas, Breast Cancer, read-out: IC50 SKBr3): 1.38 µM
IC50 ([2]; Homo sapiens, MCF7, Table 6, substituted phenyl ureas, Breast Cancer, read-out: IC50 MCF-3): 1.34 µM

Compound: CC(C)=CCc1cc(C(=O)Nc2cc3ccc(OC4CCN(C)CC4)c(C)c3oc2=O)ccc1OC1CCN(C)CC1 [Compound 25, N-(8-methyl-7-(1-methylpiperidin-4-yloxy)-2-oxo-2H-chromen-3-yl)-3-(3-methylbut-2-enyl)-4-(1-methylpiperidin-4-yloxy)benzamide]
IC50 [1, 16]: 0.21 µM
IC50 [2, 17]: 0.47 ± 0.081 µM

Compound: Cc1ccc(CNC(=O)Nc2cc3ccc(OC4CCN(C)CC4)c(C)c3oc2=O)cc1
IC50 [1, 12]: 0.56 ± 0.07 µM
IC50 [2, 13]: 0.55 ± 0.02 µM

Compound: CC(C)=CCc1cc(C(=O)Nc2cc3ccc(OCC4CCCN(C)C4)c(C)c3oc2=O)ccc1O (centres unmarked)
IC50 [1, 3]: 1.3 ± 0.63 µM
IC50 [2, 4]: 2.64 ± 0.45 µM

Compound: CCN(CC)CCCOc1ccc2cc(NC(=O)c3ccc(O)c(CC=C(C)C)c3)c(=O)oc2c1C [Compound 68c]
IC50 ([1]; Table 4, alkylamino analogues, read-out: SKBr3): 4.9 ± 0.42 µM
IC50 ([2]; Table 4, alkylamino analogues, read-out: MCF-7): 6.39 ± 0.04 µM

Compound: Cc1ccc(NC(=O)Nc2cc3ccc(OC4CCN(C)CC4)c(C)c3oc2=O)cc1C [Compound 10]
IC50 [1, 11]: 0.31 ± 0.09 µM

Compound: COc1ccc(C(=O)Nc2cc3ccc(OC4CCN(C)CC4)c(C)c3oc2=O)cc1CC=C(C)C [Compound 16, 4-methoxy-N-(8-methyl-7-(1-methylpiperidin-4-yloxy)-2-oxo-2H-chromen-3-yl)-3-(3-methylbut-2-enyl)benzamide]
IC50 [1, 14]: 1.41 ± 0.2 µM
IC50 [2, 15]: 1.58 ± 0.09 µM

Compound: CC(C)=CCc1cc(C(=O)Nc2cc3ccc(OC4CCN(C)CC4)c(C)c3oc2=O)ccc1OCCCN(C)C [Compound 24, 4-(3-(dimethylamino)propoxy)-N-(8-methyl-7-(1-methylpiperidin-4-yloxy)-2-oxo-2H-chromen-3-yl)-3-(3-methylbut-2-enyl)benzamide]
IC50 [1, 16]: 0.25 ± 0.02 µM
IC50 [2, 17]: 0.46 ± 0.05 µM

Compound: CC(C)=CCc1cc(C(=O)Nc2cc3ccc(OCCC4CCCCN4)c(C)c3oc2=O)ccc1O (centres unmarked)
IC50 [1, 3]: 0.64 ± 0.06 µM
IC50 [2, 4]: 0.71 ± 0.03 µM

Compound: COc1cccc(NC(=O)Nc2cc3ccc(OC4CCN(C)CC4)c(C)c3oc2=O)c1 [m-OCH3]
IC50 ([1]; Table 6, substituted phenyl ureas, Breast Cancer, read-out: IC50 SKBr3): 1.15 µM
IC50 ([2]; Table 6, substituted phenyl ureas, Breast Cancer, read-out: IC50 MCF-3): 0.96 µM

Compound: Cc1c(OC2CCN(C)CC2)ccc2cc(NC(=O)Nc3cccc(-c4ccccc4)c3)c(=O)oc12 [H, H, 1-([1,1′-biphenyl]-3-yl)-3-(8-methyl-7-((1-methylpiperidin-4-yl)oxy)-2-oxo-2H-chromen-3-yl)urea]
IC50 [1, 9]: 0.38 µM
IC50 [2, 10]: 0.32 µM

Compound: Cc1c(OC2CCN(C)CC2)ccc2cc(NC(=O)Nc3ccc(Cl)cc3)c(=O)oc12 [Compound 8]
IC50 [1, 11]: 0.17 ± 0.01 µM

Compound: CC(C)=CCc1cc(C(=O)Nc2cc3ccc(OC4CCN(C)CC4)c(C)c3oc2=O)ccc1O [drawing 134]
IC50 [2, 4]: 1.09 ± 0.1 µM

Compound: CC(C)=CCc1cc(C(=O)Nc2cc3ccc(OC4CCN(C)CC4)c(C)c3oc2=O)ccc1O [Compound 2]
IC50 [2, 15]: 1.09 ± 0.1 µM
IC50 [2, 17]: 1.09 ± 0.1 µM
IC50 ([2]; Homo sapiens, MCF7, amide versus urea linkage, read-out: IC50 for MCF-3): 1.09 µM

The next lines start with the values.

IC50 [1, 5]: 0.96 ± 0.01 µM
IC50 [2, 6]: 1.07 ± 0.01 µM
Compound: CC(C)=CCc1cc(C(=O)Nc2cc3ccc(OCCCNC(C)(C)c4ccccc4)c(C)c3oc2=O)ccc1O [Compound 70g, 4-hydroxy-N-(8-methyl-2-oxo-7-(3-((2-phenylpropan-2-yl)amino)propoxy)-2H-chromen-3-yl)-3-(3-methylbut-2-en-1-yl)benzamide]

IC50 [1, 7]: 0.66 ± 0.06 µM
IC50 [2, 8]: 0.95 ± 0.1 µM
Compound: CC(C)=CCc1cc(C(=O)Nc2cc3ccc(OCCCNC(C)(C)C)c(C)c3oc2=O)ccc1O [Compound 68j, N-(7-(3-(tert-butylamino)propoxy)-8-methyl-2-oxo-2H-chromen-3-yl)-4-hydroxy-3-(3-methylbut-2-en-1-yl)benzamide]

IC50 [1, 7]: 0.57 ± 0.13 µM
IC50 [2, 8]: 1.05 ± 0.06 µM
Compound: CC(C)=CCc1cc(C(=O)Nc2cc3ccc(OCCCN(C)C(C)C)c(C)c3oc2=O)ccc1O [Compound 68h, 4-hydroxy-N-(7-(3-(isopropyl(methyl)amino)propoxy)-8-methyl-2-oxo-2H-chromen-3-yl)-3-(3-methylbut-2-en-1-yl)benzamide]

IC50 ([1]; Table 5, alkylether derivatives with cyclic N-substitutions, read-out: SKBr3): 0.97 ± 0.03 µM
IC50 ([2]; Table 5, alkylether derivatives with cyclic N-substitutions, read-out: MCF-7): 1.08 ± 0.07 µM
Compound: CC(C)=CCc1cc(C(=O)Nc2cc3ccc(OCCCN(C)C4CCCCC4)c(C)c3oc2=O)ccc1O [Compound 70b]

IC50 [1, 5]: 0.47 ± 0.16 µM
IC50 [2, 6]: 0.91 ± 0.01 µM
Compound: CC(C)=CCc1cc(C(=O)Nc2cc3ccc(OCCCNCc4ccccc4)c(C)c3oc2=O)ccc1O [Compound 70e, N-(7-(3-(benzylamino)propoxy)-8-methyl-2-oxo-2H-chromen-3-yl)-4-hydroxy-3-(3-methylbut-2-en-1-yl)benzamide]

IC50 [1, 9]: 0.44 µM
IC50 [2, 10]: 0.5 µM
Compound: Cc1ccc(NC(=O)Nc2cc3ccc(OC4CCN(C)CC4)c(C)c3oc2=O)cc1-c1cccc(Cl)c1 [CH3, Cl, 1-(3′-chloro-6-methyl-[1,1′-biphenyl]-3-yl)-3-(8-methyl-7-((1-methylpiperidin-4-yl)oxy)-2-oxo-2H-chromen-3-yl)urea]

IC50 [1, 5]: 0.77 ± 0.13 µM
IC50 [2, 6]: 1.03 ± 0.12 µM
Compound: CC(C)=CCc1cc(C(=O)Nc2cc3ccc(OCCCNC4C[C@H]5CC[C@@H]4C5)c(C)c3oc2=O)ccc1O (stereo partly drawn) [Compound 70i, N-(7-(3-((1R,4S)-bicyclo[2.2.1]heptan-2-ylamino)propoxy)-8-methyl-2-oxo-2H-chromen-3-yl)-4-hydroxy-3-(3-methylbut-2-en-1-yl)benzamide]

IC50 [1, 7]: 0.75 ± 0.26 µM
IC50 [2, 8]: 0.74 ± 0.16 µM
Compound: CC(C)=CCc1cc(C(=O)Nc2cc3ccc(OCCCNC(C)C)c(C)c3oc2=O)ccc1O [Compound 68g, 4-hydroxy-N-(7-(3-(isopropylamino)propoxy)-8-methyl-2-oxo-2H-chromen-3-yl)-3-(3-methylbut-2-en-1-yl)benzamide]

IC50 [1, 7]: 0.72 ± 0.34 µM
IC50 [2, 8]: 0.98 ± 0.35 µM
Compound: CCNCCCOc1ccc2cc(NC(=O)c3ccc(O)c(CC=C(C)C)c3)c(=O)oc2c1C [Compound 68a, N-(7-(3-(ethylamino)propoxy)-8-methyl-2-oxo-2H-chromen-3-yl)-4-hydroxy-3-(3-methylbut-2-en-1-yl)benzamide]

IC50 [1, 7]: 0.88 ± 0.1 µM
IC50 [2, 8]: 1.14 ± 0.11 µM
Compound: CC(C)=CCc1cc(C(=O)Nc2cc3ccc(OCCCN(C)C(C)(C)C)c(C)c3oc2=O)ccc1O [Compound 68k, N-(7-(3-(tert-butyl(methyl)amino)propoxy)-8-methyl-2-oxo-2H-chromen-3-yl)-4-hydroxy-3-(3-methylbut-2-en-1-yl)benzamide]

IC50 [1, 7]: 0.99 ± 0.03 µM
IC50 [2, 8]: 0.98 µM
Compound: CCCNCCCOc1ccc2cc(NC(=O)c3ccc(O)c(CC=C(C)C)c3)c(=O)oc2c1C [Compound 68d, 4-hydroxy-N-(8-methyl-2-oxo-7-(3-(propylamino)propoxy)-2H-chromen-3-yl)-3-(3-methylbut-2-en-1-yl)benzamide]

Reference: patent publication US10030006B2, “Coumarin based Hsp90 inhibitors with urea and ether substituents” (University of Kansas, priority 2013, dated 2018)
